Consider two molecules from US5234949A (Academic Pharmaceuticals, Inc., priority 1992, dated 1993).

Read-outs that look alike come from different tables or passages of the source.

For one data set, the system named is dog. The settings on record: in vivo; cited from earlier work.
A further data set has as its system Coronary Occlusion (Rat). The data set can be described thus: Antiarrhythmic effects following coronary occlusion. The data set is classed as in vivo.
The conditions of data set [1]: administered intravenously; cited from earlier work.

Take Tween-80: in the data set with dog, the blood pressure effect entry is “causes hypotension” and the cardiac effect entry was “potent cardiac depressant”.
For the molecule `CCCCc1oc2ccccc2c1C(=O)c1cc(I)c(OCCN(CC)CC)c(I)c1` [Amiodarone, 2-n-butyl-3-(3,5-diiodo-4-β-N-diethylaminoethoxybenzoyl) benzofuran], the solution behaviour entry is recorded as “remains in solution” (0.05 to 0.1M acetate buffer, pH 3.5 to 3.8, about 25 to 50 mg/ml, room temperature, extended period); “formed a gel after cooling” (0.2M acetate buffer, same pH range, after cooling); “a gel formed at room temperature” (pH above 4.0, room temperature); “gel formation occurred at all pH's” (phosphate buffer, 0.1M, on cooling). Moreover, the “dose-dependent suppression of arrhythmias vs saline control group” value in the data set on Coronary Occlusion (Rat) was “significantly different than that seen with the saline control group”. The “onset of action; hemodynamic and electrophysiological effect” value in data set [1] is “rapid onset of action causing profound hemodynamic and electrophysiological effect”.
